Columns and labels:
[1] = system: cells with wildtype (WT) cereblon; assay: Viability in cells with wildtype cereblon; type: cell-based
Description: X-axis axis represents m concentration of compound 8; y-axis represents viability normalized to DMSO.

GSPT1 [2] = molecular target: T1, GSPT1 (Homo sapiens, UniProt P15170+Q96SW2); assay: GSPT1 levels in NCI-H1155 tumors by western blotting (compound 210); type: in vivo, mice; set-up: from tissue; host or cells: NCI-H1155 subcutaneous xenograft tumours from BALB/c nude mice; details: all three dose levels, 6 hours after the third dose
Method: GSPT1 levels in tumors were determined by western blotting 6 hours after the third dose. Western blotting was performed as described previously using GAPDH as loading control.

GSPT1 [3] = molecular target: T1, GSPT1; assay: GSPT1 degradation by western blotting in NSCLC cell lines (compound 210); type: cell-based; set-up: endogenous in cells; details: NCI-H1155 and ABC-1 cells, six hours
Method: The anti-proliferative activity of compound 210 was tested on representative N-Myc high and N-Myc low cell lines (NCI-H1155, ABC-1 and EBC-1, NCI-H2023, respectively) following treatment with compound for 72 hours. Cells were sub-cultures as recommended by the providers (ATCC, DSMZ) and incubated at 37° C., 5% CO2. All cells were authenticated and confirmed by Short Tandem Repeat (STR) profiling. Briefly, cells were seeded to the appropriate density to allow logarithmic growth over the assay period in 96-well opaque-walled clear bottom plates (from Corning, Cat. No. 3903, Lot. No. 16419061; 100 μL total volume) and incubated overnight. […] Cell viability was assessed using the CellTiter-Glo assay kit as recommended by the Manufacturer (Promega, Cat. No. G7558, Lot. No. 0000385738) and measurements performed on the EnSpire multimode plate reader (Perkin Elmer). EC50 values were determined using Prism8 (GraphPad) and the asymmetric (five-parameter) equation and least squares fit. GSPT1 levels were assessed in the NCI-H1155 and ABC-1 cell lines by densitometry analysis following treatment with compound 210 for 6 hours and western blotting analysis. […] For chemiluminescence and colorimetric signals “optimal automatic exposure” settings (3×3 binning) were employed while fluorescence was detected using 1-4 seconds exposure time to achieve best GAPDH signals and avoid overexposure. […]

[4] = system: NSCLC cell lines expressing high levels of N-Myc (NCI-H1155, ABC-1); assay: Viability of NSCLC cell lines treated with compound 210; type: cell-based, human; details: compared to low N-Myc lines EBC-1, NCI-H2023
Method: GSPT1 was degraded by compound 210 after six hours of treatment in high N-Myc NCI-H1155 and ABC-1 cells with a DC50 of 3 nM and 22 nM, respectively (x-axis represents M concentration of compound 210; y-axis represents the viability in %).

MM1S cell line = assay: Caspase 3/7 apoptosis Glo assay in MM1S; type: cell-based; details: 48 hr treatment
[5] = system: DOHH2 lymphoma cell line derived xenograft; assay: DOHH2 lymphoma CDX efficacy study; type: in vivo, immunodeficient mice; details: oral daily 3 mg/kg and 10 mg/kg
Method: Additionally, cell line derived xenograft (CDX) models were produced for lymphoma cell line (DOHH2) in immunodeficient mice. Oral dosing of Compound 345 was performed daily at doses of 3 mg/kg and 10 mg/kg as well as the CHOP combination (a well-known lymphoma treatment regimen) and a no-drug vehicle control. Tumor volumes were measured (mm^3) at regular intervals over the course of up to 30 days depending on the animal.
In vivo efficacy study: NCI-H1155, MM1 S, WSU-DLCL2, DOHH-2 cells were maintained in vitro in individual medium and conditions as recommended by the providers and incubated at 37° C. in an atmosphere of 5% CO2 in air. 0.5 million (NCI-H1155), 10 million (MM1S) or 5 million (WSU-DLCL2 and DOHH-2) cells were resuspended in typically 0.1-0.2 mL of PBS with Matrigel (50:50) and were inoculated into 6-8 weeks old BALB/c nude female (NCI-H115, WSU-DLCL2), NOD/SCID (MM1S) or CB-17SCID (DOHH-2) mice and allowed to grow to 150-200 mm3 in size. […] Tumor volumes were measured at least twice weekly during the treatment period using a caliper and the volume was expressed in mm3 using the formula: V=0.5 a×b2 where a and b were the long and short diameters of the tumor, respectively. […] Data are expressed as the mean±SEM. All data was analyzed using GraphPad Prism 8.1.2 (GraphPad).

T1 sequence (P15170 whole entry): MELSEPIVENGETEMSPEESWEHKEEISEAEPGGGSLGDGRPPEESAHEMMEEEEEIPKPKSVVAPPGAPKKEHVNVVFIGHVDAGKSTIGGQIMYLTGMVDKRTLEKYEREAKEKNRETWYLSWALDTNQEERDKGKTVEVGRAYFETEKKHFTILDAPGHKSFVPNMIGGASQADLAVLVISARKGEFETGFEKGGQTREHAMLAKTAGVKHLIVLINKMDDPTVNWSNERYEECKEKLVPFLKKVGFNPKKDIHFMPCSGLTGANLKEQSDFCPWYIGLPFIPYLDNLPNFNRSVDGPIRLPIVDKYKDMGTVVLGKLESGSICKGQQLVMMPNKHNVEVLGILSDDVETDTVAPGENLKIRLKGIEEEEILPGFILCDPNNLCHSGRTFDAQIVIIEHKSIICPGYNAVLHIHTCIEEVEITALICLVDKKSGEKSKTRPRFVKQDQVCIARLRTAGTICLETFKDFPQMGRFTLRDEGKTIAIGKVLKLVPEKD
T1 sequence (Q96SW2 whole entry): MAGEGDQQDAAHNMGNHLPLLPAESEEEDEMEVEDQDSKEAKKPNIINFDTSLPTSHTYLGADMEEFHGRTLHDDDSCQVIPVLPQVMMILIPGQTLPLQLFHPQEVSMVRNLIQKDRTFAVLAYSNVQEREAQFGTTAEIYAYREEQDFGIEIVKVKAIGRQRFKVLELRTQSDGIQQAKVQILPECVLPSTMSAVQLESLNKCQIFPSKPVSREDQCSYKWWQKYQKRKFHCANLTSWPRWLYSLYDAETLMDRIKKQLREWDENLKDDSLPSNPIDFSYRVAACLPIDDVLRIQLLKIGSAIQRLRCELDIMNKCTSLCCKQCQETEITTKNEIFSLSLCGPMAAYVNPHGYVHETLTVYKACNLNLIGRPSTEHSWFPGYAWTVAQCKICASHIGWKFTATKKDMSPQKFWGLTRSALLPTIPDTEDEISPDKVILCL
T1 sequence (Q16531 whole entry partner): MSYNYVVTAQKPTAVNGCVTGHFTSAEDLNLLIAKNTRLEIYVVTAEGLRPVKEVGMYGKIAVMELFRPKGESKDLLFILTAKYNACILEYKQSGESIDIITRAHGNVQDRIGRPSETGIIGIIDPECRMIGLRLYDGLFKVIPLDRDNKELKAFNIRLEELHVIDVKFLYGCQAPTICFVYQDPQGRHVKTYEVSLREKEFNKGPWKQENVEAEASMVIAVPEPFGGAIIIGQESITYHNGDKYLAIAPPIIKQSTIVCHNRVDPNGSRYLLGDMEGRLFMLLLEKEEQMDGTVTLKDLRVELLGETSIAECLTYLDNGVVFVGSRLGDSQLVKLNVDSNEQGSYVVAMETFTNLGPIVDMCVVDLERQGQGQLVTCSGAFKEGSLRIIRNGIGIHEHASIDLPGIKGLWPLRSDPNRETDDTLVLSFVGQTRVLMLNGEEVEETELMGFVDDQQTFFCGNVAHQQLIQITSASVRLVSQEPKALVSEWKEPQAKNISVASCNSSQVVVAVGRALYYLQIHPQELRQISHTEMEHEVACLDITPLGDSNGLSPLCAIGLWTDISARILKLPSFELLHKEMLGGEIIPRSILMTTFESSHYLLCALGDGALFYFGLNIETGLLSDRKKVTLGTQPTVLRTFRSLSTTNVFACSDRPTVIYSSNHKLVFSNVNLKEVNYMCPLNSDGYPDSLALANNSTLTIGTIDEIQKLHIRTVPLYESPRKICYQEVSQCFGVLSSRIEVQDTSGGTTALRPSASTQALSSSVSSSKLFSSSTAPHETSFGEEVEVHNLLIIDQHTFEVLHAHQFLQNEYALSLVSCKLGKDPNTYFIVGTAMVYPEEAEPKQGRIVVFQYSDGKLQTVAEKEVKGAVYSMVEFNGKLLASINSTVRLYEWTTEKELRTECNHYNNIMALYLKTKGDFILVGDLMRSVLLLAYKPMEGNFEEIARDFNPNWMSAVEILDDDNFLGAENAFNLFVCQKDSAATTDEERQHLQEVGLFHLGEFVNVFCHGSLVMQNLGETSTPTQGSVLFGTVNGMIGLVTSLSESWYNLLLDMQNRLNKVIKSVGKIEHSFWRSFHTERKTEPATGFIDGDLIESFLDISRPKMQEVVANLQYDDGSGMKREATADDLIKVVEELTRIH

Structure (SMILES): Cc1ccc(NC(=O)NCc2ccc3c(c2)C(=O)N(C2CCC(=O)NC2=O)C3)cc1Cl (stereo not drawn) [Compound 8]
- induction of death (viability normalized to DMSO) [1]: did induce death

Structure (SMILES): Cc1ccc(NC(=O)OCc2ccc3c(c2)C(=O)N(C2CCC(=O)NC2=O)C3)cc1Cl (stereo not drawn) [Compound 210]
- GSPT1 degradation in tumors (GSPT1 [2]): Complete degradation of GSPT1
- extent of GSPT1 degradation (GSPT1 [3]): Complete degradation of GSPT1
- sensitivity to treatment (viability) [4]: highly sensitive

Structure (SMILES): O=C1CCC(N2Cc3ccc(COC(=O)Nc4cc(OC(F)(F)F)ccc4F)cc3C2=O)C(=O)N1 (stereo not drawn) [Compound 345, (2-(2,6-dioxopiperidin-3-yl)-3-oxoisoindolin-5-yl)methyl(2-fluoro-5-(trifluoromethoxy)phenyl)carbamate]
- apoptosis (Caspase 3/7) (MM1S cell line): Apoptosis induction
- tumor volume [5]: anti-tumor activity
